Measurements: US20260274895A1, “DE NOVO DESIGNED MEMBRANE-TRAVERSING AND ORALLY BIOAVAILABLE MACROCYCLES” (UNIVERSITY OF WASHINGTON, priority 2022, published 2026)
Where a SMILES comes first, the peptide text is derived from it. [ ]: non-standard residue; d: D form. NMeF = CN[C@@H](Cc1ccccc1)C(=O)O; dNMeF = CN[C@H](Cc1ccccc1)C(=O)O; NMeL = CN[C@@H](CC(C)C)C(=O)O; dNMeL = CN[C@H](CC(C)C)C(=O)O; NMeM = CN[C@@H](CCSC)C(=O)O; NMeV = CN[C@H](C(=O)O)C(C)C; Nle = CCCC[C@H](N)C(=O)O; dNMeA = CN[C@H](C)C(=O)O; Aib = CC(C)(N)C(=O)O

Conditions: for PAMPA_Papp_Avg (apparent permeability): PAMPA

Row | Compound | membrane permeability in PAMPA (in words) | PAMPA_Papp_Avg (apparent permeability)
1 | CC(C)C[C@@H]1C(=O)N[C@H](C(C)C)C(=O)N[C@H](C)C(=O)N2CCC[C@@H]2C(=O)N(C)[C@H](CC(C)C)C(=O)N[C@H](C(C)C)C(=O)N[C@H](C)C(=O)N2CCC[C@@H]2C(=O)N1C [Design D8.31, ap*lvap*lv] (cyclo([dA][dP][dNMeL][dV][dA][dP][dNMeL][dV])) | membrane permeable | 
2 | CC[C@H](C)[C@@H]1NC(=O)[C@@H](CC(C)C)N(C)C(=O)[C@@H]2CCCN2C(=O)[C@H](C(C)C)NC(=O)C(C)(C)NC(=O)[C@H](CC(C)C)NC(=O)C(C)(C)NC(=O)[C@@H]2CCCN2C(=O)[C@H]2CCCN2C1=O [Design D9.1, pPBLBVP*lI] (cyclo([Aib]L[Aib]VP[dNMeL]I[dP]P)) |  | 1.59 ×10⁻⁶ cm/s
3 | CC[C@@H](C)[C@H]1NC(=O)[C@H](CC(C)C)NC(=O)[C@@H](CC(C)C)NC(=O)[C@H](C(C)C)NC(=O)[C@@H](Cc2ccccc2)N(C)C(=O)[C@@H]2CCCN2C(=O)[C@@H](CC(C)C)NC(=O)[C@H](CC(C)C)N(C)C(=O)[C@H]2CCCN2C1=O [Design D9.3, Lip*LlP*fVl] (cyclo(L[dI][dP][NMeL][dL]P[dNMeF]V[dL])) |  | 2.33 ×10⁻⁶ cm/s
4 | CC[C@H](C)[C@@H]1NC(=O)[C@H](Cc2ccccc2)N(C)C(=O)[C@H](CC(C)C)N(C)C(=O)[C@@H](C(C)C)NC(=O)[C@@H](C)NC(=O)[C@@H]2CCCN2C(=O)[C@@H](CC(C)C)NC(=O)[C@@H]2CCCN2C(=O)[C@H](C)NC1=O [Design D9.6, Pav*L*FIAPl] (cyclo(AP[dL]P[dA][dV][NMeL][NMeF]I)) |  | 1.63 ×10⁻⁶ cm/s
5 | CC(C)C[C@H]1NC(=O)[C@@H]2CCCN2C(=O)[C@@H](C(C)C)NC(=O)[C@@H](C)N(C)C(=O)[C@@H](C(C)C)NC(=O)[C@@H]2CCCN2C(=O)[C@@H](Cc2ccccc2)NC(=O)[C@H](CC(C)C)N(C)C(=O)[C@@H](C(C)C)NC1=O [Design D9.9, Pv*avPlv*Lf] (cyclo([NMeL][dF]P[dV][dNMeA][dV]P[dL][dV])) |  | 3.51 ×10⁻⁶ cm/s
6 | CC[C@H](C)[C@@H]1NC(=O)[C@@H](CC(C)C)N(C)C(=O)[C@H](CC(C)C)N(C)C(=O)[C@@H](C)N(C)C(=O)[C@@H](Cc2ccccc2)NC(=O)[C@H](C(C)C)NC(=O)[C@@H](C)NC(=O)[C@@H]2CCCN2C(=O)[C@H]2CCCN2C1=O [Design D9.10, Vf*a*L*lIpPa] (cyclo([dA]V[dF][dNMeA][NMeL][dNMeL]I[dP]P)) |  | 0.826 ×10⁻⁶ cm/s
7 | CC[C@@H](C)[C@H]1NC(=O)[C@H]2CCCN2C(=O)[C@H]([C@@H](C)CC)NC(=O)[C@H](CC(C)C)N(C)C(=O)[C@H]2CCCN2C(=O)[C@@H]2CCCN2C(=O)[C@H](Cc2ccccc2)N(C)C(=O)[C@H](Cc2ccccc2)NC(=O)[C@H]([C@@H](C)CC)NC1=O [Design D9.13, piIF*FPp*LI] (cyclo(F[NMeF]P[dP][NMeL]I[dP][dI]I)) |  | 3.37 ×10⁻⁶ cm/s
8 | CC(C)C[C@@H]1NC(=O)[C@H]2CCCN2C(=O)[C@@H](CC(C)C)NC(=O)[C@@H](CC(C)C)NC(=O)[C@@H](CC(C)C)N(C)C(=O)[C@H](C(C)C)NC(=O)[C@@H](C)NC(=O)[C@@H](C)N(C)C(=O)[C@@H]2CCCN2C1=O [Design D9.16, P*aaV*lllpL] (cyclo(LP[dNMeA][dA]V[dNMeL][dL][dL][dP])) | significant permeability | 
9 | CC(C)C[C@@H]1C(=O)N[C@H](C(C)C)C(=O)N(C)[C@@H](C(C)C)C(=O)N2CCC[C@H]2C(=O)N2CCC[C@@H]2C(=O)N[C@@H](C)C(=O)N(C)[C@@H](Cc2ccccc2)C(=O)N(C)[C@H](CC(C)C)C(=O)N[C@H](C)C(=O)N1C [Design D9.17, pA*F*la*lv*VP] (cyclo(A[NMeF][dNMeL][dA][dNMeL][dV][NMeV]P[dP])) |  | 1.74 ×10⁻⁶ cm/s
10 | CC(C)C[C@@H]1C(=O)N(C)[C@H](CC(C)C)C(=O)N2CCC[C@H]2C(=O)N[C@H](CC(C)C)C(=O)N2CCC[C@@H]2C(=O)N2CCC[C@@H]2C(=O)N(C)[C@H](CC(C)C)C(=O)N[C@H](Cc2ccccc2)C(=O)N[C@@H](C)C(=O)N1C [Design D9.18, A*l*lPlpp*lf] (cyclo(A[dNMeL][dNMeL]P[dL][dP][dP][dNMeL][dF])) |  | 1.76 ×10⁻⁶ cm/s

Other lines, results leading:

Row | membrane permeability in PAMPA (in words) | PAMPA_Papp_Avg (apparent permeability) | Compound
11 |  | 1.28 ×10⁻⁶ cm/s | CC(C)C[C@@H]1NC(=O)[C@@H](CC(C)C)NC(=O)[C@@H](CC(C)C)N(C)C(=O)[C@@H](CC(C)C)N(C)C(=O)[C@H](C(C)C)NC(=O)[C@@H](C)N(C)C(=O)[C@@H]2CCCN2C(=O)[C@@H]2CCCN2C(=O)[C@@H](C)N(C)C1=O [Design D9.19, P*aV*l*llL*aP] (cyclo(L[dNMeA]PP[dNMeA]V[dNMeL][dNMeL][dL]))
12 |  | 0.294 ×10⁻⁶ cm/s | CCCC[C@@H]1NC(=O)[C@H](C(C)C)NC(=O)[C@H]2CCCN2C(=O)[C@@H]2CCCN2C(=O)[C@H](C)NC(=O)[C@@H](C)N(C)C(=O)[C@@H](CC(C)C)N(C)C(=O)[C@@H](C(C)C)NC(=O)[C@@H]2CCCN2C1=O [Design D9.21, APpVMPv*l*a] (cyclo(AP[dP]V[Nle]P[dV][dNMeL][dNMeA]))
13 |  | 0.189 ×10⁻⁶ cm/s | CC(C)C[C@@H]1NC(=O)[C@@H]2CCCN2C(=O)[C@H]2CCCN2C(=O)[C@@H](C)N(C)C(=O)[C@@H](CC(C)C)N(C)C(=O)[C@H](C(C)C)NC(=O)[C@@H](C)N(C)C(=O)[C@H]2CCCN2C(=O)[C@@H]2CCCN2C1=O [Design D9.22, p*aV*l*apPLP] (cyclo(LP[dP][dNMeA]V[dNMeL][dNMeA][dP]P))
14 |  | 0.141 ×10⁻⁶ cm/s | CC[C@@H](C)[C@H]1NC(=O)[C@@H](CC(C)C)NC(=O)[C@@H]2CCCN2C(=O)[C@H]2CCCN2C(=O)[C@@H](C(C)C)NC(=O)[C@H](C)NC(=O)[C@@H]2CCCN2C(=O)[C@@H]([C@H](C)CC)NC(=O)[C@@H](C)N(C)C1=O [Design D9.23, i*aiPAVpPl] (cyclo([dL][dI][dNMeA][dI]PA[dV][dP]P))
15 |  | 0.0869 ×10⁻⁶ cm/s | CSCC[C@H]1C(=O)N(C)[C@H](C)C(=O)N[C@H](CC(C)C)C(=O)N2CCC[C@@H]2C(=O)N2CCC[C@H]2C(=O)N[C@@H](CC(C)C)C(=O)N2CCC[C@H]2C(=O)N2CCC[C@@H]2C(=O)N[C@H](C(C)C)C(=O)N1C [Design D9.24, pv*M*alpPLP] (cyclo(LP[dP][dV][NMeM][dNMeA][dL][dP]P))
16 |  | 0.24 ×10⁻⁶ cm/s | CC(C)C[C@@H]1NC(=O)[C@H](Cc2ccccc2)N(C)C(=O)[C@H]2CCCN2C(=O)[C@@H](CC(C)C)NC(=O)[C@@H](CC(C)C)NC(=O)[C@H](C)NC(=O)[C@H]2CCCN2C(=O)[C@@H]2CCCN2C(=O)[C@@H](C(C)C)NC1=O [Design D9.32, pAllp*FLvP] (cyclo(A[dL][dL][dP][NMeF]L[dV]P[dP]))
17 |  | 0.317 ×10⁻⁶ cm/s | CC[C@H](C)[C@@H]1NC(=O)CNC(=O)[C@@H]2CCCN2C(=O)[C@H]2CCCN2C(=O)[C@H]([C@@H](C)CC)NC(=O)[C@@H](C)N(C)C(=O)[C@@H]2CCCN2C(=O)[C@H](C(C)C)NC(=O)[C@@H](CC(C)C)NC1=O [Design D9.33, pPGIlVP*aI] (cyclo(GI[dL]VP[dNMeA]I[dP]P))
18 |  | 0.238 ×10⁻⁶ cm/s | CCCC[C@@H]1NC(=O)[C@H]2CCCN2C(=O)[C@H](C(C)C)NC(=O)[C@@H](CC(C)C)N(C)C(=O)[C@H](Cc2ccccc2)NC(=O)[C@H](CC(C)C)NC(=O)[C@@H](CC(C)C)N(C)C(=O)[C@@H]2CCCN2C(=O)[C@@H](CC(C)C)NC1=O [Design D9.40, pMlP*lLF*lV] (cyclo(F[dNMeL]V[dP][Nle][dL]P[dNMeL]L))
